# Results: paper PMC8371461 (Frontiers in Pharmacology, 2021)
# Assays:
# NEK5 = biological target: T1, NEK5 (Homo sapiens, UniProt Q6P3R8); assay: kinome scan; assay type: binding; details: 10 µM
# T1 construct: purchased DiscoverX (KINOMEscan)
# ERK5 = biological target: T2, ERK5 (Homo sapiens, UniProt Q13164); assay: kinome scan; assay type: binding; details: 10 µM
# T2 construct: purchased DiscoverX (KINOMEscan)
# AAK1 = biological target: T3, AAK1 (Homo sapiens, UniProt Q2M2I8); assay: kinome scan; assay type: binding; details: 10 µM
# T3 construct: purchased DiscoverX (KINOMEscan)
# T3 sequence (Q2M2I8 whole entry): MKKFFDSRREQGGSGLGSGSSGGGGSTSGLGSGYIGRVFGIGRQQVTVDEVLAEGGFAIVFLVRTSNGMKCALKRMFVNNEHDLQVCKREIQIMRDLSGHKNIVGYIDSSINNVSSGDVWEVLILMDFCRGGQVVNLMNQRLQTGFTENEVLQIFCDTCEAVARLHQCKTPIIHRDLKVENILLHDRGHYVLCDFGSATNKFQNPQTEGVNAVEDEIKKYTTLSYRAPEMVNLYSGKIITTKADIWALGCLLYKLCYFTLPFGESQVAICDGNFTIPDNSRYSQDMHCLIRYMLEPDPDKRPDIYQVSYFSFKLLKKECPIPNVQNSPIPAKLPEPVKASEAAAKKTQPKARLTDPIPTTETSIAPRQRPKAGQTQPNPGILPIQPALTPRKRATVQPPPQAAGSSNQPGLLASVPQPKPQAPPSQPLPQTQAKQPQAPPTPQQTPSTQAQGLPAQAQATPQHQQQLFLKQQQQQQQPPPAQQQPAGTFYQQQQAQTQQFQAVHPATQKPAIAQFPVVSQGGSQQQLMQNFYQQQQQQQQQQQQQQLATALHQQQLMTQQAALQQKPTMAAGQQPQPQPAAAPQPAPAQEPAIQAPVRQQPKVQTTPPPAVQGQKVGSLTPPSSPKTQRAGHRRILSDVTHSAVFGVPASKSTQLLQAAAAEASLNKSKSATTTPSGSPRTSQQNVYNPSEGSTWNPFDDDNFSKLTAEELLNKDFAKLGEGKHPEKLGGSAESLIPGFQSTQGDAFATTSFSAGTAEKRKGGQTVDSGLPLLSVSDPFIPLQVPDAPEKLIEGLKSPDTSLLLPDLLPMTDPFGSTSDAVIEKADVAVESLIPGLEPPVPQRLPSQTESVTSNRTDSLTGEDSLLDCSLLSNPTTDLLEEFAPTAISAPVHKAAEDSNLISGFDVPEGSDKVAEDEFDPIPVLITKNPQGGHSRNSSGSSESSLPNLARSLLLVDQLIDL
# MAP4K3 = biological target: T4, MAP4K3 (Homo sapiens, UniProt Q8IVH8); assay: kinome scan; assay type: binding; details: 10 µM
# T4 construct: purchased DiscoverX (KINOMEscan)
# DYRK2 = biological target: T5, DYRK2 (Homo sapiens, UniProt Q92630); assay: kinome scan; assay type: binding
# T5 construct: purchased DiscoverX (KINOMEscan)
# T5 sequence (Q92630 1-601): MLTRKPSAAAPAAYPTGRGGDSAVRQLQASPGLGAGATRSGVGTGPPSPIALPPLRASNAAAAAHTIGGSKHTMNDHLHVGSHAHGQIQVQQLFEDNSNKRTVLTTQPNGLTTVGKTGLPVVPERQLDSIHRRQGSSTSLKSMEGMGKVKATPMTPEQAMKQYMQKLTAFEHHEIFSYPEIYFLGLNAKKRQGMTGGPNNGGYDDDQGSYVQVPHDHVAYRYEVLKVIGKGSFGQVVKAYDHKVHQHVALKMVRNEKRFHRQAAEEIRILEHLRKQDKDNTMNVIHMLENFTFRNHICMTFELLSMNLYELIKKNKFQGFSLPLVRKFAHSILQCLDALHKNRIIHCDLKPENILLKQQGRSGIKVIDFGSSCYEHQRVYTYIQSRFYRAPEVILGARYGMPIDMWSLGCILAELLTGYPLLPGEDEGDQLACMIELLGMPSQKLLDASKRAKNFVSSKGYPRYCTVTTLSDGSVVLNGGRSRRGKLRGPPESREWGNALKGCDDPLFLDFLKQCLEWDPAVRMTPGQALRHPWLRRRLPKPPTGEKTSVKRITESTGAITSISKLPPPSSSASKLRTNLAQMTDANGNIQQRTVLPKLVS
# SNARK = biological target: T6, SNARK (Homo sapiens, UniProt Q9H093); assay: kinome scan; assay type: binding; details: 10 µM
# T6 construct: purchased DiscoverX (KINOMEscan)
# KIT(V559D) = biological target: T7, KIT(V559D) (Homo sapiens, UniProt P10721, V559D); assay: kinome scan; assay type: binding
# T7 construct: purchased DiscoverX (KINOMEscan)
# T7 sequence (P10721 26-976 V559D): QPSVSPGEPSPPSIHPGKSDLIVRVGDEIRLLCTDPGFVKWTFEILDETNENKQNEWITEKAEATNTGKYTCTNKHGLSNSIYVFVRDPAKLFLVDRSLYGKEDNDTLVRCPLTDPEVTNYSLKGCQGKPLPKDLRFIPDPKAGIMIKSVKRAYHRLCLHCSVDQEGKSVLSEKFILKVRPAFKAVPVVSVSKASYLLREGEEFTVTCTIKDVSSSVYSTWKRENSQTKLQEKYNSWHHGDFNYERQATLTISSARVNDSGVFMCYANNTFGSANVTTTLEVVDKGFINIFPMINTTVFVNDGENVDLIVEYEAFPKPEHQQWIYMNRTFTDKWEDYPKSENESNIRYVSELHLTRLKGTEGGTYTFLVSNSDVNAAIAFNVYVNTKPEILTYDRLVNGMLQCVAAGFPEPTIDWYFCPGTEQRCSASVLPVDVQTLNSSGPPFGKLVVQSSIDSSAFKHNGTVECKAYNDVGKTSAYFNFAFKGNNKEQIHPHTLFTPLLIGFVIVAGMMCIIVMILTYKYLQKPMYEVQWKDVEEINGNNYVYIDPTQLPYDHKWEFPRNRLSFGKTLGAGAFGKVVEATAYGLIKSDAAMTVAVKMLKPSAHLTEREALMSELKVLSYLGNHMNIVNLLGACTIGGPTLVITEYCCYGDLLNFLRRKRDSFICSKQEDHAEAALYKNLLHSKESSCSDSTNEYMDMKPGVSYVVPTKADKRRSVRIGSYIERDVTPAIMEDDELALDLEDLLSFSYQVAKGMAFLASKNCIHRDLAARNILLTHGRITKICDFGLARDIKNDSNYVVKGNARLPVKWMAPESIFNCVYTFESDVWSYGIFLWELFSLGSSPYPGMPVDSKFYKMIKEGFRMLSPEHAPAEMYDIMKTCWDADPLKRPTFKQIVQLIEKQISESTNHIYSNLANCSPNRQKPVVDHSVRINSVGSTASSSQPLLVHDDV
# EGFR(L747-E749delA750P) = biological target: T8, EGFR(L747-E749delA750P) (Homo sapiens, UniProt P00533, A750P/DEL747-749); assay: kinome scan; assay type: binding; details: 10 µM
# T8 construct: purchased DiscoverX (KINOMEscan)
# [1] = system: Cytochrome P450 3A4 isoform 1; design: method as in PubChem Bioassay ID 884; details: reported activity, data mining; ref PubChem Bioassay ID 884; cited from earlier work
# NEK1 = biological target: T9, NEK1 (Homo sapiens, UniProt Q96PY6); assay: kinome scan; assay type: binding; details: 10 µM
# T9 construct: purchased DiscoverX (KINOMEscan)
# INSRR = biological target: T10, INSRR (Homo sapiens, UniProt P14616); assay: kinome scan; assay type: binding; details: 10 µM
# T10 construct: purchased DiscoverX (KINOMEscan)
# LTK = biological target: T11, LTK (Homo sapiens, UniProt P29376); assay: kinome scan; assay type: binding; details: 10 µM
# T11 construct: purchased DiscoverX (KINOMEscan)
# PIP5K1A = biological target: T12, PIP5K1A (Homo sapiens, UniProt Q99755); assay: kinome scan; assay type: binding; details: 10 µM
# T12 construct: purchased DiscoverX (KINOMEscan)
# DYRK1B = biological target: T13, DYRK1B (Homo sapiens, UniProt Q9Y463); assay: kinome scan; assay type: binding; details: 10 µM
# T13 construct: purchased DiscoverX (KINOMEscan)
# PIK3CA(E545A) = biological target: T14, PIK3CA(E545A) (Homo sapiens, UniProt P42336, E545A); assay: kinome scan; assay type: binding; details: 10 µM
# T14 construct: purchased DiscoverX (KINOMEscan)
# T14 sequence (P42336 whole entry E545A): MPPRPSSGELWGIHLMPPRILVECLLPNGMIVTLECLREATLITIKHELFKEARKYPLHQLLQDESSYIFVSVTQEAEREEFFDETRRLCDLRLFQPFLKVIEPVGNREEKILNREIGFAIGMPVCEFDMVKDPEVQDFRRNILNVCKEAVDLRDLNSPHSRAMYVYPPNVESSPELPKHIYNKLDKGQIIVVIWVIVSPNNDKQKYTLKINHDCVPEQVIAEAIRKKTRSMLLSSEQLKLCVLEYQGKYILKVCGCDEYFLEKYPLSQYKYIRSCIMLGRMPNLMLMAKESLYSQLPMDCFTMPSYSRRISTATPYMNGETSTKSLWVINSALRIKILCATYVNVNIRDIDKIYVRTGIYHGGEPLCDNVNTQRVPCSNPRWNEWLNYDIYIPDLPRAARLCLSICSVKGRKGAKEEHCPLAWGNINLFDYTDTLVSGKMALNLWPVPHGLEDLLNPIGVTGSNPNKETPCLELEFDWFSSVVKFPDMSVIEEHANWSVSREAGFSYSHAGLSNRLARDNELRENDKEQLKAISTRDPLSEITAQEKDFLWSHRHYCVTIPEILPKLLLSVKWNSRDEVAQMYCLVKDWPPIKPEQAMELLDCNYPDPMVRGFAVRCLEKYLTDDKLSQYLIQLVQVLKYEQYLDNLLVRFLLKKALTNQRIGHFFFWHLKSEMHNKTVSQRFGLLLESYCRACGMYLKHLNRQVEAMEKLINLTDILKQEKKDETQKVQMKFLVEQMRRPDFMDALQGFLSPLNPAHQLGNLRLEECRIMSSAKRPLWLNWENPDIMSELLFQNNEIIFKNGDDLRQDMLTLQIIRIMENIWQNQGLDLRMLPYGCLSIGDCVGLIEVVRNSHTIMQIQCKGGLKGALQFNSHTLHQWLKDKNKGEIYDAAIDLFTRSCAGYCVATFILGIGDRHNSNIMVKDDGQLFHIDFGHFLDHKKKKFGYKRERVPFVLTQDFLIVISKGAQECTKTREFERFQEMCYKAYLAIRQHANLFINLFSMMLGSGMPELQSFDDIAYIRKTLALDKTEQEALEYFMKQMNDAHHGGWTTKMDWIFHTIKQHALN
# CSNK1A1 = biological target: T15, CSNK1A1 (Homo sapiens, UniProt P48729); assay: kinome scan; assay type: binding; details: 10 µM
# T15 construct: purchased DiscoverX (KINOMEscan)
# MAP3K2 = biological target: T16, MAP3K2 (Homo sapiens, UniProt Q9Y2U5); assay: kinome scan; assay type: binding; details: 10 µM
# T16 construct: purchased DiscoverX (KINOMEscan)
# [2] = biological target: T17, ABL1(F317I)-nonphosphorylated (Homo sapiens, UniProt P00519, F317I); assay: kinome scan; assay type: binding; details: 10 µM
# T17 construct: purchased DiscoverX (KINOMEscan)
# MKNK1 = biological target: T18, MKNK1 (Homo sapiens, UniProt Q9BUB5); assay: kinome scan; assay type: binding; details: 10 µM
# T18 construct: purchased DiscoverX (KINOMEscan)
# [3] = biological target: T19, JAK1(JH2domain-pseudokinase) (Homo sapiens, UniProt P23458); assay: kinome scan; assay type: binding; details: 10 µM
# T19 construct: JAK1(JH2domain-pseudokinase); purchased DiscoverX (KINOMEscan)
# CDK4-cyclinD1 = biological target: T20, CDK4-cyclinD1 (Homo sapiens, UniProt P11802); assay: kinome scan; assay type: binding; details: 10 µM
# T20 construct: purchased DiscoverX (KINOMEscan)
# [4] = biological target: T21, ABL1(F317I)-phosphorylated (Homo sapiens, UniProt P00519, F317I); assay: kinome scan; assay type: binding; details: 10 µM
# T21 construct: purchased DiscoverX (KINOMEscan)
# MAPKAPK5 = biological target: T22, MAPKAPK5 (Homo sapiens, UniProt Q8IW41); assay: kinome scan; assay type: binding; details: 10 µM
# T22 construct: purchased DiscoverX (KINOMEscan)
# AKT2 = biological target: T23, AKT2 (Homo sapiens, UniProt P31751); assay: kinome scan; assay type: binding; details: 10 µM
# T23 construct: purchased DiscoverX (KINOMEscan)
# CDK3 = biological target: T24, CDK3 (Homo sapiens, UniProt Q00526); assay: kinome scan; assay type: binding; details: 10 µM
# T24 construct: purchased DiscoverX (KINOMEscan)
# CSNK1G1 = biological target: T25, CSNK1G1 (Homo sapiens, UniProt Q9HCP0); assay: kinome scan; assay type: binding; details: 10 µM
# T25 construct: purchased DiscoverX (KINOMEscan)
# CAMKK2 = biological target: T26, CAMKK2 (Homo sapiens, UniProt Q96RR4); assay: kinome scan; assay type: binding; details: 10 µM
# T26 construct: purchased DiscoverX (KINOMEscan)
# ACVR2B = biological target: T27, ACVR2B (Homo sapiens, UniProt Q13705); assay: kinome scan; assay type: binding; details: 10 µM
# T27 construct: purchased DiscoverX (KINOMEscan)
# T27 sequence (Q13705 19-512): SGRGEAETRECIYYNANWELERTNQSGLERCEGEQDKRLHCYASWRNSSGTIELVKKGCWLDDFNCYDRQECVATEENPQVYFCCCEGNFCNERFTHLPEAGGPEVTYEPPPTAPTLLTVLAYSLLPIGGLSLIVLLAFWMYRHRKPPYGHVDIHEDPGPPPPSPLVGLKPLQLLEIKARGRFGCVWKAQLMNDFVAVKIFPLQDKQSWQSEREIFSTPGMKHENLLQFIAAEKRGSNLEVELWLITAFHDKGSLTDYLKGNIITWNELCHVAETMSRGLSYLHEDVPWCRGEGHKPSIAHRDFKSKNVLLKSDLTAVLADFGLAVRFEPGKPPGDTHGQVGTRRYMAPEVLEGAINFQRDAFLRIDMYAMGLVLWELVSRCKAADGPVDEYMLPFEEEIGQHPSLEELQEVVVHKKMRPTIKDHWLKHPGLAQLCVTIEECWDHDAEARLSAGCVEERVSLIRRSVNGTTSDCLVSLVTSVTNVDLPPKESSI
# RIOK2 = biological target: T28, RIOK2 (Homo sapiens, UniProt Q9BVS4); assay: kinome scan; assay type: binding
# T28 construct: T7 phage fusion (kinase-tagged phage); purchased DiscoverX; host or cells: BL21-derived E. coli (T7 phage)
# T28 sequence (Q9BVS4 whole entry, the tested form may be a part): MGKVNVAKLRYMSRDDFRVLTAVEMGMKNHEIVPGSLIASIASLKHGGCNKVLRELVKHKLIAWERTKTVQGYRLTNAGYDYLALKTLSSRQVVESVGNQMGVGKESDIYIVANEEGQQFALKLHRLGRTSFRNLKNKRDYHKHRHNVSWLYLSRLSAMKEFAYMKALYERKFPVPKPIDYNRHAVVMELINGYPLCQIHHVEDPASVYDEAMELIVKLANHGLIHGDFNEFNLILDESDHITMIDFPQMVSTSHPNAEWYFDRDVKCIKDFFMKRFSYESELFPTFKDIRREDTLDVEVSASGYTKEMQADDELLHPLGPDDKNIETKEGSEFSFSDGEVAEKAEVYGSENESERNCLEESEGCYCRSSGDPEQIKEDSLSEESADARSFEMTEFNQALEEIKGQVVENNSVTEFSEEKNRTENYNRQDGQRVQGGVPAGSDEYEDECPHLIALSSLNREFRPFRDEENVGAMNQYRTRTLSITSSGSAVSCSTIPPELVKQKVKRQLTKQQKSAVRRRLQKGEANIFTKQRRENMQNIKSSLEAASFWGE
# PLK2 = biological target: T29, PLK2 (Homo sapiens, UniProt Q9NYY3); assay: kinome scan; assay type: binding; details: 10 µM
# T29 construct: purchased DiscoverX (KINOMEscan)
# FGFR2 = biological target: T30, FGFR2 (Homo sapiens, UniProt P21802); assay: kinome scan; assay type: binding; details: 10 µM
# T30 construct: purchased DiscoverX (KINOMEscan)
# T30 sequence (P21802 22-821): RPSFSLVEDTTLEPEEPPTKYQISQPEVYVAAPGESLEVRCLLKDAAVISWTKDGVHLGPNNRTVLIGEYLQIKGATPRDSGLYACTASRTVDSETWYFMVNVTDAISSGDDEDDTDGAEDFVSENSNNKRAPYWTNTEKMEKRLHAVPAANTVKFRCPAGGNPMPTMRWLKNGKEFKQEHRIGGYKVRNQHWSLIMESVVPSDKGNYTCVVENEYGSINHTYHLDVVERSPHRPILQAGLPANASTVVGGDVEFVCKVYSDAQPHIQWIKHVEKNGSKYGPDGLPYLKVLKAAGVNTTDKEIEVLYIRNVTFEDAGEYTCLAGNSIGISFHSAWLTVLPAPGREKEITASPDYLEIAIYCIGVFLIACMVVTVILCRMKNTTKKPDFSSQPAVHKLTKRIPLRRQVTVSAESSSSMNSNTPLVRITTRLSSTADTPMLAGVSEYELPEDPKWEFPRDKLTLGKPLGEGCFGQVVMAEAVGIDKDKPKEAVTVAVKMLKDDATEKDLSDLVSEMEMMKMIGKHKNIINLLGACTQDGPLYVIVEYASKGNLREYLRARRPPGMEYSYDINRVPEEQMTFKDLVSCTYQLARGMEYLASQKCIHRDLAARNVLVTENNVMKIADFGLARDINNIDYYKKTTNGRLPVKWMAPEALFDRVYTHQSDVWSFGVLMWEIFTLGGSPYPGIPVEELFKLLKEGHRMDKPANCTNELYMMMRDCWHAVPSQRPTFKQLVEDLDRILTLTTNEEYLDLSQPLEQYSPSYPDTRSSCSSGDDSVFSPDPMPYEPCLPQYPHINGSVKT
# PIK3CA(Q546K) = biological target: T31, PIK3CA(Q546K) (Homo sapiens, UniProt P42336, Q546K); assay: kinome scan; assay type: binding; details: 10 µM
# T31 construct: purchased DiscoverX (KINOMEscan)
# T31 sequence (P42336 whole entry Q546K): as the sequence (P42336 whole entry E545A) above, with A545E, Q546K counted along it
compound,measurement,setting,value
"Nc1ccc(N=Nc2ccccc2)c(N)n1 [phenazopyridine, 2,6-diamino-3-(phenylazo)pyridine]",kinase inhibition,NEK5,100
same,kinase inhibition,ERK5,95
same,kinase inhibition,AAK1,79
same,kinase inhibition,MAP4K3,74
same,percent of control binding,DYRK2; 10 µM,20
same,remaining binding at 10 µM,DYRK2; read-out: % Of control,20%
same,kinase inhibition,SNARK,87
same,remaining activity,"KIT(V559D); KIT(V559D), 10 µM",32
same,remaining binding at 10 µM,"KIT(V559D); c-KIT Val559Asp, best mutant, read-out: Kinome scan (% of control at 10 µM)",32%
same,kinase inhibition,EGFR(L747-E749delA750P),86
same,Concentration,[1],100 nM
same,kinase inhibition,NEK1,100
same,kinase inhibition,INSRR,100
same,kinase inhibition,LTK,96
same,kinase inhibition,PIP5K1A,56
same,remaining binding (% of control),DYRK1B,69
same,kinase inhibition,PIK3CA(E545A),100
same,kinase inhibition,CSNK1A1,85
same,kinase inhibition,MAP3K2,85
same,kinase inhibition,[2],96
same,kinase inhibition,MKNK1,37
same,kinase inhibition,[3],32
same,kinase inhibition,CDK4-cyclinD1,100
same,kinase inhibition,[4],78
same,kinase inhibition,MAPKAPK5,100
same,kinase inhibition,AKT2,100
same,kinase inhibition,CDK3,100
same,kinase inhibition,CSNK1G1,85
same,kinase inhibition,CAMKK2,99
same,kinase inhibition,ACVR2B,84
same,remaining binding (% of control),RIOK2; 10 µM,0
same,remaining binding at 10 µM,RIOK2; read-out: % Of control,0%
same,% of control (remaining binding),PLK2,92
same,kinase inhibition,FGFR2,93
same,kinase inhibition,PIK3CA(Q546K),100
